From PubChem BioAssay AID1963966 (Molecular Pharmacology Branch, DTP, NCI, 2024)

Tested on: 935938-334-R-J1-PDC spheroids with HUVEC/MSC, viability
Assay: Anticancer human tumor 935938-334-R-J1-PDC patient-derived small intestine adenocarcinoma cell line growth inhibition [PI3K]
Settings: for viability, T/C: stronger effect = lower value
Outline: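 Complex 3D spheroids (cancer cells + endothelial HUVEC + mesenchymal stem cells); drug pairs of targeted agent x inavolisib/alpelisib/duvelisib/copanlisib; half-log series from ~Cmax, max 10 microM if Cmax unknown; endpoint viability.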

[1] = curve of first compound, second compound 0.00316 µM
[2] = curve of first compound, second compound 0.01 µM
[3] = curve of first compound, second compound 0.0316 µM
[4] = curve of first compound, second compound 0.1 µM
[5] = curve of first compound, second compound 0.316 µM
[6] = curve of first compound, second compound 1 µM
[7] = second compound 0.00316 µM, first compound 0.0316 µM
[8] = second compound 0.00316 µM, first compound 0.1 µM
[9] = second compound 0.00316 µM, first compound 0.316 µM
[10] = second compound 0.00316 µM, first compound 1 µM
[11] = second compound 0.01 µM, first compound 0.0316 µM
[12] = second compound 0.01 µM, first compound 0.1 µM
[13] = second compound 0.01 µM, first compound 0.316 µM
[14] = second compound 0.01 µM, first compound 1 µM
[15] = second compound 0.0316 µM, first compound 0.0316 µM
[16] = second compound 0.0316 µM, first compound 0.1 µM
[17] = second compound 0.0316 µM, first compound 0.316 µM
[18] = second compound 0.0316 µM, first compound 1 µM
[19] = second compound 0.1 µM, first compound 0.0316 µM
[20] = second compound 0.1 µM, first compound 0.1 µM
[21] = second compound 0.1 µM, first compound 0.316 µM
[22] = second compound 0.1 µM, first compound 1 µM
[23] = second compound 0.316 µM, first compound 0.0316 µM
[24] = second compound 0.316 µM, first compound 0.1 µM
[25] = second compound 0.316 µM, first compound 0.316 µM
[26] = second compound 0.316 µM, first compound 1 µM
[27] = second compound 1 µM, first compound 0.0316 µM
[28] = second compound 1 µM, first compound 0.1 µM
[29] = second compound 1 µM, first compound 0.316 µM
[30] = second compound 1 µM, first compound 1 µM
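Also: compound exposure lasted seven days before viability was read.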
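For viability, T/C in this document: percent of vehicle DMSO treated spheroid viability so 100% = untreated.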

CCN1CCN(Cc2ccc(Nc3ncc(F)c(-c4cc(F)c5nc(C)n(C(C)C)c5c4)n3)nc2)CC1 + CC(Nc1ccc2c(c1)OCCn1cc(N3C(=O)OCC3C(F)F)nc1-2)C(N)=O
IC50 [1]: 126 nM | IC50 [2]: 168 nM | IC50 [3]: 46.3 nM | IC50 [4]: < 3.16 nM | IC50 [5]: 32.3 nM | IC50 [6]: < 3.16 nM | viability, T/C (second compound 0.00316 µM, first compound 0.00316 µM): 60.1% | viability, T/C (second compound 0.00316 µM, first compound 0.01 µM): 67.3% | viability, T/C [7]: 66% | viability, T/C [8]: 49.8% | viability, T/C [9]: 37.6% | viability, T/C [10]: 18.1% | viability, T/C (second compound 0.01 µM, first compound 0.00316 µM): 59.6% | viability, T/C (second compound 0.01 µM, first compound 0.01 µM): 58% | viability, T/C [11]: 65% | viability, T/C [12]: 64.4% | viability, T/C [13]: 35.6% | viability, T/C [14]: 15.5% | viability, T/C (second compound 0.0316 µM, first compound 0.00316 µM): 83.7% | viability, T/C (second compound 0.0316 µM, first compound 0.01 µM): 68.3% | viability, T/C [15]: 56.8% | viability, T/C [16]: 39% | viability, T/C [17]: 28.8% | viability, T/C [18]: 19.6% | viability, T/C (second compound 0.1 µM, first compound 0.00316 µM): 42.6% | viability, T/C (second compound 0.1 µM, first compound 0.01 µM): 55.9% | viability, T/C [19]: 51.3% | viability, T/C [20]: 45.1% | viability, T/C [21]: 28.9% | viability, T/C [22]: 16.2% | viability, T/C (second compound 0.316 µM, first compound 0.00316 µM): 43% | viability, T/C (second compound 0.316 µM, first compound 0.01 µM): 51.5% | viability, T/C [23]: 56% | viability, T/C [24]: 26.8% | viability, T/C [25]: 23.3% | viability, T/C [26]: 14.7% | viability, T/C (second compound 1 µM, first compound 0.00316 µM): 44.3% | viability, T/C (second compound 1 µM, first compound 0.01 µM): 38% | viability, T/C [27]: 50.3% | viability, T/C [28]: 25.4% | viability, T/C [29]: 22.3% | viability, T/C [30]: 20.6%

CC(Cn1ccc(-c2ccc(C#N)c(Cl)c2)n1)NC(=O)c1cc(C(C)O)[nH]n1 (stereo not drawn)
viability, T/C (compound 0.0316 µM): 90.6% [middle of 4 runs] | viability, T/C (compound 0.316 µM): 101% [middle of 4 runs] | IC50 (curve of compound): > 10000 nM

Cn1ncc(Cl)c1-c1cc(C(=O)NC(CN)Cc2cccc(F)c2)sc1Cl (stereo not drawn) + CC(Nc1ccc2c(c1)OCCn1cc(N3C(=O)OCC3C(F)F)nc1-2)C(N)=O
IC50 [1]: > 10000 nM | IC50 [2]: > 10000 nM | IC50 [3]: > 10000 nM | IC50 [4]: 761 nM | IC50 [5]: 261 nM | IC50 [6]: < 31.6 nM | viability, T/C [7]: 107% | viability, T/C [8]: 69% | viability, T/C [9]: 60.8% | viability, T/C [10]: 57.9% | viability, T/C (second compound 0.00316 µM, first compound 3.16 µM): 56.5% | viability, T/C (second compound 0.00316 µM, first compound 10 µM): 116% | viability, T/C [11]: 104% | viability, T/C [12]: 79.4% | viability, T/C [13]: 53% | viability, T/C [14]: 72.8% | viability, T/C (second compound 0.01 µM, first compound 3.16 µM): 40.9% | viability, T/C (second compound 0.01 µM, first compound 10 µM): 99.8% | viability, T/C [15]: 102% | viability, T/C [16]: 73.2% | viability, T/C [17]: 56.7% | viability, T/C [18]: 49.2% | viability, T/C (second compound 0.0316 µM, first compound 3.16 µM): 35.9% | viability, T/C (second compound 0.0316 µM, first compound 10 µM): 86% | viability, T/C [19]: 80.6% | viability, T/C [20]: 74.7% | viability, T/C [21]: 55.5% | viability, T/C [22]: 39.1% | viability, T/C (second compound 0.1 µM, first compound 3.16 µM): 32.5% | viability, T/C (second compound 0.1 µM, first compound 10 µM): 72.8% | viability, T/C [23]: 70.9% | viability, T/C [24]: 65.5% | viability, T/C [25]: 47.1% | viability, T/C [26]: 41% | viability, T/C (second compound 0.316 µM, first compound 3.16 µM): 28.1% | viability, T/C (second compound 0.316 µM, first compound 10 µM): 55.7% | viability, T/C [27]: 56.7% | viability, T/C [28]: 51.1% | viability, T/C [29]: 43.3% | viability, T/C [30]: 31.4% | viability, T/C (second compound 1 µM, first compound 3.16 µM): 39% | viability, T/C (second compound 1 µM, first compound 10 µM): 72.4%

Cn1cnc2c(F)c(Nc3ccc(Br)cc3Cl)c(C(=O)NOCCO)cc21 + CC(Nc1ncnc2nc[nH]c12)c1cc2cccc(Cl)c2c(=O)n1-c1ccccc1
IC50 [3]: 68.7 nM | IC50 [4]: 110 nM | IC50 [5]: 78.4 nM | IC50 [6]: 81.4 nM | IC50 (curve of first compound, second compound 3.16 µM): 30.5 nM | IC50 (curve of first compound, second compound 10 µM): 51.5 nM | viability, T/C (second compound 0.0316 µM, first compound 0.00949 µM): 82.2% | viability, T/C (second compound 0.0316 µM, first compound 0.03 µM): 63.5% | viability, T/C (second compound 0.0316 µM, first compound 0.0949 µM): 43.2% | viability, T/C (second compound 0.0316 µM, first compound 0.3 µM): 34.5% | viability, T/C (second compound 0.0316 µM, first compound 0.949 µM): 27.5% | viability, T/C (second compound 0.0316 µM, first compound 3 µM): 21.8% | viability, T/C (second compound 0.1 µM, first compound 0.00949 µM): 76% | viability, T/C (second compound 0.1 µM, first compound 0.03 µM): 71.7% | viability, T/C (second compound 0.1 µM, first compound 0.0949 µM): 47.4% | viability, T/C (second compound 0.1 µM, first compound 0.3 µM): 38.2% | viability, T/C (second compound 0.1 µM, first compound 0.949 µM): 30.9% | viability, T/C (second compound 0.1 µM, first compound 3 µM): 20.8% | viability, T/C (second compound 0.316 µM, first compound 0.00949 µM): 73.5% | viability, T/C (second compound 0.316 µM, first compound 0.03 µM): 70.4% | viability, T/C (second compound 0.316 µM, first compound 0.0949 µM): 41.4% | viability, T/C (second compound 0.316 µM, first compound 0.3 µM): 35.4% | viability, T/C (second compound 0.316 µM, first compound 0.949 µM): 22.3% | viability, T/C (second compound 0.316 µM, first compound 3 µM): 20% | viability, T/C (second compound 1 µM, first compound 0.00949 µM): 73.9% | viability, T/C (second compound 1 µM, first compound 0.03 µM): 65.6% | viability, T/C (second compound 1 µM, first compound 0.0949 µM): 47.7% | viability, T/C (second compound 1 µM, first compound 0.3 µM): 30.9% | viability, T/C (second compound 1 µM, first compound 0.949 µM): 26.2% | viability, T/C (second compound 1 µM, first compound 3 µM): 22.6% | viability, T/C (second compound 3.16 µM, first compound 0.00949 µM): 51% | viability, T/C (second compound 3.16 µM, first compound 0.03 µM): 56.6% | viability, T/C (second compound 3.16 µM, first compound 0.0949 µM): 38.6% | viability, T/C (second compound 3.16 µM, first compound 0.3 µM): 30.6% | viability, T/C (second compound 3.16 µM, first compound 0.949 µM): 27.4% | viability, T/C (second compound 3.16 µM, first compound 3 µM): 16% | viability, T/C (second compound 10 µM, first compound 0.00949 µM): 65.2% | viability, T/C (second compound 10 µM, first compound 0.03 µM): 59.6% | viability, T/C (second compound 10 µM, first compound 0.0949 µM): 39.4% | viability, T/C (second compound 10 µM, first compound 0.3 µM): 25.6% | viability, T/C (second compound 10 µM, first compound 0.949 µM): 22.6% | viability, T/C (second compound 10 µM, first compound 3 µM): 17.6%

C=CC(=O)N1CCN(c2nc(=O)n(-c3c(C)ccnc3C(C)C)c3nc(-c4c(O)cccc4F)c(F)cc23)C(C)C1 (stereo not drawn)
viability, T/C (compound 0.1 µM): 95.8% [middle of 4 runs] | viability, T/C (compound 1 µM): 111% [middle of 4 runs] | viability, T/C (compound 10 µM): 92.7% [middle of 4 runs] | IC50 (curve of compound): > 10000 nM
